Assay results reported in US20180334436A1 (VIIV HEALTHCARE UK LIMITED, priority 2015, published 2018).

System: HIV
Assay: MT4 assay (anti-HIV activity)
Format: cell-based
Conditions: Human immunodeficiency virus 1, 96 h, antiviral HIV activity in HTLV-1 transformed cell line MT-4; luciferase read 96 hours later; 10 point dose response
Summary of the method: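 MT-4 cells infected with HIV, with inhibition readout by CellTiter-Glo luminescence at 96 h relative to no-compound control. Cytotoxicity measured in parallel under the same conditions. IC50 from a 10-point, 3-4-fold dilution series spanning >1000-fold, fitted with a four-parameter logistic equation.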

Structure (SMILES)	IC50 [nM]
Cc1ccc(-c2c(C)c3c(c(C)c2[C@H](OC(C)(C)C)C(=O)O)CCN(C2CCC4CCC2C4)C3)cc1 (stereo partly drawn) [Example 60, (2S)-2-(2-(bicyclo[3.2.1]octan-2-yl)-5,8-dimethyl-7-(p-tolyl)-1,2,3,4-tetrahydroisoquinolin-6-yl)-2-(tert-butoxy)acetic Acid]	5
Cc1ccc(-c2c(C)c3c(c(C)c2[C@H](OC(C)(C)C)C(=O)O)CCN(C(C)C2CCCCC2)C3)cc1 (stereo partly drawn) [Example 70, (2S)-2-(tert-butoxy)-2-(2-(1-cyclohexylethyl)-5,8-dimethyl-7-(p-tolyl)-1,2,3,4-tetrahydroisoquinolin-6-yl)acetic Acid]	130
Cc1ccc(-c2c(C)c3c(c(C)c2[C@H](OC(C)(C)C)C(=O)O)CN(S(=O)(=O)N2CCCCC2)CC3)cc1 [Example 16, (S)-2-(tert-Butoxy)-2-(5,8-dimethyl-2-(piperidin-1-ylsulfonyl)-6-(p-tolyl)-1,2,3,4-tetrahydroisoquinolin-7-yl)acetic Acid]	34
Cc1ccc(-c2c(C)c3c(c(C)c2[C@H](OC(C)(C)C)C(=O)O)CC(=O)N(Cc2ccccc2)C3)cc1 [Example 101, (S)-2-(2-Benzyl-5,8-dimethyl-3-oxo-7-(p-tolyl)-1,2,3,4-tetrahydroisoquinolin-6-yl)-2-(tert-butoxy)acetic Acid]	4
Cc1c(-c2c(C)c3c(c(C)c2[C@H](OC(C)(C)C)C(=O)O)CC(=O)N(C2CCCCC2)C3)cc(F)c2c1CCCO2 (atropisomer, axis not shown) [Example 104, (S)-2-(tert-butoxy)-2-((R)-2-cyclohexyl-7-(8-fluoro-5-methylchroman-6-yl)-5,8-dimethyl-3-oxo-1,2,3,4-tetrahydroisoquinolin-6-yl)acetic Acid]	2
Cc1ccc(-c2c(C)c3c(c(C)c2[C@H](OC(C)(C)C)C(=O)O)CCN(C2CCC(C)(C)CC2)C3)cc1 [Example 40, (S)-2-(tert-butoxy)-2-(2-(4,4-dimethylcyclohexyl)-5,8-dimethyl-7-(p-tolyl)-1,2,3,4-tetrahydroisoquinolin-6-yl)acetic Acid]	11
Cc1c2c(c(C)c([C@H](OC(C)(C)C)C(=O)O)c1-c1ccc(Cl)cc1)CCN(C1CCCCC1)C2 [Example 87, (S)-2-(tert-butoxy)-2-(7-(4-chlorophenyl)-2-cyclohexyl-5,8-dimethyl-1,2,3,4-tetrahydroisoquinolin-6-yl)acetic Acid]	15
Cc1ccc(-c2c(C)c3c(c(C)c2[C@H](OC(C)(C)C)C(=O)O)CCN(CCc2ccccc2)C3)cc1 [Example 34, (S)-2-(tert-Butoxy)-2-(5,8-dimethyl-2-phenethyl-7-(p-tolyl)-1,2,3,4-tetrahydroisoquinolin-6-yl)acetic Acid]	165
Cc1c(-c2c(C)c3c(c(C)c2[C@H](OC(C)(C)C)C(=O)O)CCN(S(=O)(=O)C2CCCCC2)C3)ccc2c1NCCO2 (atropisomer, axis not shown; (M)) [Example 95, (S)(M)-2-(tert-butoxy)-2-(2-(cyclohexylsulfonyl)-5,8-dimethyl-7-(5-methyl-3,4-dihydro-2H-benzo[b][1,4]oxazin-6-yl)-1,2,3,4-tetrahydroisoquinolin-6-yl)acetic Acid]	9
Cc1ccc(C(=O)N2CCc3c(C)c([C@H](OC(C)(C)C)C(=O)O)c(-c4cc(F)c5c(c4C)CCCO5)c(C)c3C2)cn1 [Example 96, (S)-2-(tert-Butoxy)-2-((R)-7-(8-fluoro-5-methylchroman-6-yl)-5,8-dimethyl-2-(6-methylnicotinoyl)-1,2,3,4-tetrahydroisoquinolin-6-yl)acetic Acid]	109
Cc1ccc(-c2c(C)c3c(c(C)c2[C@H](OC(C)(C)C)C(=O)O)CCN(Cc2ccccc2)C3)cc1 [Example 55, (S)-2-(2-benzyl-5,8-dimethyl-7-(p-tolyl)-1,2,3,4-tetrahydroisoquinolin-6-yl)-2-(tert-butoxy)acetic Acid]	349
Cc1ccc(-c2c(C)c3c(c(C)c2[C@H](OC(C)(C)C)C(=O)O)CCN(S(=O)(=O)NC2CCCCC2)C3)cc1 [Example 63, (S)-2-(tert-butoxy)-2-(2-(N-cyclohexylsulfamoyl)-5,8-dimethyl-7-(p-tolyl)-1,2,3,4-tetrahydroisoquinolin-6-yl)acetic Acid]	119
COc1c(F)cccc1C(=O)N1CCc2c(C)c([C@H](OC(C)(C)C)C(=O)O)c(-c3ccc(C)cc3)c(C)c2C1 [Example 26, (S)-2-(tert-Butoxy)-2-(2-(3-fluoro-2-methoxybenzoyl)-5,8-dimethyl-7-(p-tolyl)-1,2,3,4-tetrahydroisoquinolin-6-yl)acetic Acid]	61
Cc1c(-c2c(C)c3c(c(C)c2[C@H](OC(C)(C)C)C(=O)O)CC(=O)N(C2CCCCC2)C3)cc(Cl)c2c1CCCO2 (atropisomer, axis not shown) [Example 118]	4
Cc1ccc(-c2c(C)c3c(c(C)c2C(OC(C)(C)C)C(=O)O)C(=O)N(Cc2ccccc2)CC3)cc1 (stereo not drawn) [Example 121, 2-(2-benzyl-5,8-dimethyl-1-oxo-6-(p-tolyl)-1,2,3,4-tetrahydroisoquinolin-7-yl)-2-(tert-butoxy)acetic Acid]	474
Cc1ccc(-c2c(C)c3c(c(C)c2C(OC(C)(C)C)C(=O)O)CN(C(=O)C(=O)N2CCCCC2)CC3)cc1 (stereo not drawn) [Example 5, 2-(tert-Butoxy)-2-(5,8-dimethyl-2-(2-oxo-2-(piperidin-1-yl)acetyl)-6-(p-tolyl)-1,2,3,4-tetrahydroisoquinolin-7-yl)acetic Acid]	157
Cc1ccc(-c2c(C)c3c(c(C)c2[C@H](OC(C)(C)C)C(=O)O)CCN(C2CCC2)C3)cc1 [Example 61, (S)-2-(tert-butoxy)-2-(2-cyclobutyl-5,8-dimethyl-7-(p-tolyl)-1,2,3,4-tetrahydroisoquinolin-6-yl)acetic Acid]	141
Cc1c(-c2c(C)c3c(c(C)c2[C@H](OC(C)(C)C)C(=O)O)CCN(S(=O)(=O)C2CCCCC2)C3)cc(Cl)c2c1CCCO2 (atropisomer, axis not shown; (M)) [Example 88, (S)(M)-2-(tert-butoxy)-2-(7-(8-chloro-5-methylchroman-6-yl)-2-(cyclohexylsulfonyl)-5,8-dimethyl-1,2,3,4-tetrahydroisoquinolin-6-yl)acetic Acid]	36
Cc1ccc(-c2c(C)c3c(c(C)c2[C@H](OC(C)(C)C)C(=O)O)CCN(CC(=O)N2CCCCC2)C3)cc1 [Example 54, (S)-2-(tert-butoxy)-2-(5,8-dimethyl-2-(2-oxo-2-(piperidin-1-yl)ethyl)-7-(p-tolyl)-1,2,3,4-tetrahydroisoquinolin-6-yl)acetic Acid]	309
Cc1ccc(-c2c(C)c3c(c(C)c2[C@H](OC(C)(C)C)C(=O)O)CCN(S(=O)(=O)C(C)C)C3)cc1 [Example 66, (S)-2-(tert-butoxy)-2-(2-(isopropylsulfonyl)-5,8-dimethyl-7-(p-tolyl)-1,2,3,4-tetrahydroisoquinolin-6-yl)acetic Acid]	48
Cc1ccc(-c2c(C)c3c(c(C)c2[C@H](OC(C)(C)C)C(=O)O)CCN(C(=O)C2CCCCCC2)C3)cc1 [Example 75, (S)-2-(tert-butoxy)-2-(2-(cycloheptanecarbonyl)-5,8-dimethyl-7-(p-tolyl)-1,2,3,4-tetrahydroisoquinolin-6-yl)acetic Acid]	51
